Tests used:
Test in all cases: -log10 GI50 (growth inhibition 50%) (-log10(M)); higher = more potent growth inhibition
HS578T = system: HS578T
Method in brief: (§1)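 Breast cancer cell lines were exposed to each compound for 72 hours at nine doses in 1:5 serial dilution, in triplicate, with a luminescence read-out against a time-zero plate. A Gompertz curve was fitted to the dose-response data by nonlinear least squares. The value is minus log10 of GI50, the molar concentration giving the set level of growth inhibition. Values equal to the top dose carry a < qualifier.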

CAMA1 = system: CAMA1
Method in brief: as §1

SUM185PE = system: SUM185PE
Method in brief: as §1

HCC1806 = system: HCC1806
Method in brief: as §1

MCF10A = system: MCF10A
Method in brief: as §1

SKBR3 = system: SKBR3
Method in brief: as §1

SUM159PT = system: SUM159PT
Method in brief: as §1

MCF7 = system: MCF7
Method in brief: as §1

HCC1419 = system: HCC1419
Method in brief: as §1

HCC1187 = system: HCC1187
Method in brief: as §1

MDAMB231 = system: MDAMB231
Method in brief: as §1

MDAMB361 = system: MDAMB361
Method in brief: as §1

AU565 = system: AU565
Method in brief: as §1

ZR75B = system: ZR75B
Method in brief: as §1

MDAMB453 = system: MDAMB453
Method in brief: as §1

ZR751 = system: ZR751
Method in brief: as §1

T47D = system: T47D
Method in brief: as §1

SUM52PE = system: SUM52PE
Method in brief: as §1

184B5 = system: 184B5
Method in brief: as §1

T47D_KBluc = system: T47D_KBluc
Method in brief: as §1

| Structure (SMILES) | -log10 GI50 (HS578T) | -log10 GI50 (CAMA1) | -log10 GI50 (SUM185PE) | -log10 GI50 (HCC1806) | -log10 GI50 (MCF10A) | -log10 GI50 (SKBR3) | -log10 GI50 (SUM159PT) | -log10 GI50 (MCF7) | -log10 GI50 (HCC1419) | -log10 GI50 (HCC1187) | -log10 GI50 (MDAMB231) | -log10 GI50 (MDAMB361) | -log10 GI50 (AU565) | -log10 GI50 (ZR75B) | -log10 GI50 (MDAMB453) | -log10 GI50 (ZR751) | -log10 GI50 (T47D) | -log10 GI50 (SUM52PE) | -log10 GI50 (184B5) | -log10 GI50 (T47D_KBluc) |
| --- | --- | --- | --- | --- | --- | --- | --- | --- | --- | --- | --- | --- | --- | --- | --- | --- | --- | --- | --- | --- |
| CC(=O)Nc1cccc(-n2c(=O)n(C3CC3)c(=O)c3c(Nc4ccc(I)cc4F)n(C)c(=O)c(C)c32)c1 | 7.47 | < 4.78 | 4.9 | 6.39 | 8.23 | < 4.78 | 7.93 | < 4.78 | 7.23 | < 4.78 | 6.86 | < 4.78 | 5.01 | < 4.78 | 6.64 | < 4.78 | < 4.78 | 6.92 | – | – |
| CC(C)Oc1ccc(C(=O)N[C@H](CNC(=O)CN(C)C)Cc2ccc(-c3cn4cccc([C@H](C)O)c4n3)cc2)cc1Cl | 7.32 | 7.33 | 5.43 | 7.34 | 7.29 | 7.34 | 7.43 | 5.74 | 5.72 | 7.52 | 5.91 | 7.43 | 7.62 | 7.18 | – | 7.09 | 7.29 | 7.65 | 5.17 | – |
| CCNCCCNC/C=C\CNCCCNCC | 4.54 | 2.91 | < 3.3 | 3.88 | 4.2 | 3.51 | 4.03 | 3.46 | 4.85 | 3.16 | 4.75 | 3.15 | 3.33 | 3.61 | 4.26 | 3.29 | 5.67 | 5.45 | 3.13 | – |
| CCn1cc(-c2ccnc3[nH]c(-c4cccc(CN(C)C)c4)cc23)c(-c2ccc(NC(=O)N(C)C)cc2)n1 | 6.42 | 5.05 | 5.95 | 5.16 | 6.12 | 5.29 | 5.77 | 5.06 | 5.18 | 7.95 | 5.47 | 5.22 | 5.52 | 5.85 | 5.54 | 5.08 | 5.36 | 6.86 | 6.19 | – |
| C[C@@H](Oc1cc(-n2cnc3ccc(CN4CCN(C)CC4)cc32)sc1C(N)=O)c1ccccc1C(F)(F)F | 7.71 | 5.17 | 5.71 | 7.95 | 7.37 | 6.92 | 7.49 | 6.5 | 5.13 | 7.48 | 7.75 | 8.72 | 8.58 | 7.06 | 8.02 | 5.16 | 5.56 | 8.2 | 6.69 | – |
| O=C1NC(=O)/C(=C/c2ccc3nccc(-c4ccncc4)c3c2)S1 | 5.74 | 5.77 | 7.13 | 5.82 | 6.57 | 6.82 | 6.72 | 5.56 | 6.59 | 6.84 | 5.21 | 5.92 | 6.32 | 6.51 | 6.52 | 5.99 | 6.95 | 6.82 | – | – |
| Oc1cc(-c2nc(-c3ccccc3)[nH]c2-c2ccncc2)ccc1Cl | 4.69 | 4.4 | 5.19 | 4.9 | 4.92 | 4.66 | 4.78 | < 4.48 | 4.79 | 5.07 | 4.87 | 4.76 | < 4.48 | 4.51 | < 4.48 | 4.59 | < 4.48 | 5.13 | 5.45 | – |
| C=CCNC1=C2C[C@@H](C)C[C@H](OC)[C@H](O)[C@@H](C)/C=C(\C)[C@H](OC(N)=O)[C@@H](OC)/C=C\C=C(/C)C(=O)NC(=CC1=O)C2=O [17-AAG] | 6.96 | 6.6 | 7.47 | 7.05 | 7.4 | 7.55 | 7.46 | 6.25 | 7.41 | 5.29 | 6.11 | 7.29 | 7.24 | 7.27 | 7.36 | 6.83 | 5.97 | 7.79 | 7.56 | – |
| COc1cc2ncnc(Nc3cccc(Cl)c3)c2cc1OC [AG1478] | 4.06 | 4.46 | < 3.78 | 4.63 | 6.65 | 5.4 | 4.76 | 4.05 | 5.92 | < 3.78 | < 3.78 | 4.82 | 4.79 | < 3.78 | < 3.78 | < 3.78 | 4.74 | < 3.78 | – | – |
| CCc1c2c(nc3ccc(OC(=O)N4CCC(N5CCCCC5)CC4)cc13)-c1cc3c(c(=O)n1C2)COC(=O)[C@]3(O)CC [CPT-11] | 4.5 | 4.84 | 4.99 | 5.81 | 5.7 | 5.49 | 5.37 | 4.64 | 4.62 | 4.35 | 5.06 | 5.25 | 5.83 | 5.82 | 5.19 | 5.44 | 6.31 | 5.87 | 5.66 | – |
| O=C(O)C1(C(=O)O)CCC1.[NH2-].[NH2-].[Pt+2] [Carboplatin] | 4.1 | 3.72 | 3.94 | 4.81 | 4.2 | 5 | 4.55 | 3.64 | 4.02 | 4.66 | 4.09 | 4.34 | 4.95 | 3.52 | 4.27 | 4.1 | 4.02 | 4.71 | 5.29 | – |
| N.N.[Cl][Pt][Cl] [Cisplatin] | 5.16 | 4.39 | 4.03 | 5.68 | 5.1 | 4.77 | 5.4 | 4.66 | 4.91 | 5.67 | 4.65 | 5.06 | 5.72 | 4.06 | 5.16 | 4.99 | 5.27 | 5.78 | < 3.3 | – |
| COc1cccc2c1C(=O)c1c(O)c3c(c(O)c1C2=O)C[C@@](O)(C(=O)CO)C[C@@H]3O[C@H]1C[C@H](N)[C@H](O)[C@H](C)O1 [Doxorubicin] | 6.31 | 6.58 | 6.51 | 6.79 | 6.79 | 6.9 | 6.77 | 6.11 | 6.33 | 7.3 | 6.44 | 6.63 | 7.03 | 6.67 | 6.67 | 6.87 | 7.37 | 7.01 | – | – |
| COc1cccc2c1C(=O)c1c(O)c3c(c(O)c1C2=O)C[C@@](O)(C(=O)CO)C[C@@H]3O[C@H]1C[C@H](N)[C@@H](O)[C@H](C)O1 [Epirubicin] | 6.44 | – | 6.39 | 6.78 | 6.71 | – | 6.86 | 6.45 | 6.15 | 6.33 | 6.57 | 6.65 | 6.84 | 6.94 | 6.66 | 6.6 | – | 7.42 | 8.25 | – |
| O=c1[nH]cc(F)c(=O)[nH]1 [Fluorouracil] | 4.34 | 3.51 | 2.53 | 4.61 | 4.95 | 4.48 | 4.68 | 4.37 | 3.77 | 4.04 | 3.75 | 3.98 | 4.69 | 4.95 | 4.02 | 4.52 | – | 4.65 | < 1.72 | – |
| COc1cc2ncnc(Nc3ccc(F)c(Cl)c3)c2cc1OCCCN1CCOCC1 [Gefitinib] | 4.76 | – | 5.11 | 5.31 | 6.17 | 5.56 | 5.07 | < 4.48 | 5.5 | 4.53 | < 4.48 | 5.03 | 5.97 | 4.67 | 5.13 | < 4.48 | 4.8 | 5.1 | 7.43 | – |
| COC1=C2C[C@@H](C)C[C@H](OC)[C@H](O)[C@@H](C)/C=C(\C)[C@H](OC(N)=O)[C@@H](OC)/C=C\C=C(/C)C(=O)NC(=CC1=O)C2=O [Geldanamycin] | 7.28 | 7.47 | 7.71 | 7.12 | 8.23 | 7.79 | 8.21 | 6.62 | 7.49 | 7.8 | 7.65 | 7.78 | 7.35 | 7.05 | 7.69 | 7.06 | 7.62 | 7.93 | 8.01 | – |
| O=C(c1ccc(Nc2nccc(-c3cc4ccccc4s3)n2)cc1)N1CCC(N2CCCC2)CC1 [IKK 16] | 5.53 | 5.57 | – | 5.99 | 5.56 | 5.53 | 5.8 | – | 5.36 | 5.25 | 5.44 | 5.24 | 5.58 | – | 5.55 | 5.29 | 5.55 | 5.94 | 5.83 | 5.38 |
| O=C(O)C(=O)O.[NH-][C@@H]1CCCC[C@H]1[NH-].[Pt+2] [Oxaliplatin] | 4.74 | – | 4.39 | 5.45 | 5.41 | 5.7 | 5.6 | 5.31 | – | 5.85 | 4.9 | 5.46 | – | 5.52 | 5.19 | 5.61 | 5.55 | 5.46 | 5.57 | – |
| CC/C(=C(\c1ccccc1)c1ccc(OCCN(C)C)cc1)c1ccccc1 [Tamoxifen] | < 3.78 | 4.46 | 5.05 | 4.31 | 4.16 | 4.37 | 3.93 | < 3.78 | < 3.78 | 4.36 | < 3.78 | < 3.78 | 4.05 | – | 4.47 | < 3.78 | < 3.78 | 4.28 | – | – |
| CC[C@@]1(O)C(=O)OCc2c1cc1n(c2=O)Cc2cc3c(CN(C)C)c(O)ccc3nc2-1 [Topotecan] | 4.8 | 6.4 | 7.2 | 7.69 | 7.23 | 7.95 | 6.65 | 5.89 | 6.45 | 6.51 | 5.67 | 6.03 | 7.73 | 7.26 | 7.07 | 7.16 | – | 8.08 | 7.16 | – |
| CCC1=C[C@@H]2CN(C1)Cc1c([nH]c3ccccc13)[C@@](C(=O)OC)(c1cc3c(cc1OC)N(C)[C@H]1[C@@](O)(C(=O)OC)[C@H](OC(C)=O)[C@]4(CC)C=CCN5CC[C@]31[C@@H]54)C2 [Vinorelbine] | 7.99 | 7.88 | 8.08 | 7.97 | 7.43 | 7.83 | 7.91 | 7.85 | 6.45 | 7.64 | 8.39 | 9 | 8.24 | 8.05 | 8.8 | 7.37 | 5.34 | 7.97 | – | – |
| Cc1cc(C(=O)N2CCN(c3cccc(Cl)c3)CC2)n(-c2ccccc2)n1 [XRP44X] | 6 | 6.01 | – | 5.97 | 6.55 | – | 6.21 | 6.4 | < 3.88 | 6.05 | 5.98 | 6 | 6.35 | 5.9 | 6.01 | 5.91 | 5.41 | 6.06 | 6.55 | – |

Source: the supplement of paper PMC3937590
